These results are taken from patent US20260258084A1, “New Peptides as Selective IL-23 Receptor Antagonists” (Sanofi, priority 2022, published 2026).

A word on the solubility: it is the concentration that dissolves in the medium under given conditions.

≈ marks a conversion by molar mass, not a printed value. Read-outs that look alike come from different tables or passages of the source. Starred links: 1 amine or outer side, 2 acyl side, 3 side chain; linkers in the order of their positions; H or OH if unused. Positions of bridges follow the written chain, without caps; N, C: chain ends. Non-standard residues stand in square brackets, D forms with d. Residues, ends and D or L forms follow the SMILES beside them. *: point of attachment. Trp(7-Me) = Cc1cccc2c(C[C@H](N)C(=O)O)c[nH]c12; X1 = O=C(CCCCN[*:3])N[C@@H](CS[*:2])C(=O)[*:1]; αMeLys(Me2) = CN(C)CCCC[C@](C)(N)C(=O)O; X2 = CN(C)[C@@H](CCCCN[*:1])C(=O)[*:2]; 2Nal = N[C@@H](Cc1ccc2ccccc2c1)C(=O)O; NMe5Ava = CN(CCCCC(=O)[*:2])[*:1]; 3Pal = N[C@@H](Cc1cccnc1)C(=O)O; αMeL = CC(C)C[C@](C)(N)C(=O)O; Me2NCH2CH2 = CN(C)CC*; Ava = NCCCCC(=O)O; Sar = CNCC(=O)O A value given as a limit tells only on which side of the number the result lay.

One data set relates to T1, Pepsin.
T1 construct: purchased Merck Millipore
Nature of the data set: Protease stability in simulated gastric fluid (Pepsin-SGF, FaSSGF). It counts as in vitro ADME. Conditions: simulated gastric fluid with pepsin (Pepsin-SGF), 60 min, 1 μM peptide, 37° C., read-out: FaSSGF 60 (min), remaining percent of peptide. The procedure:
(§1) Studies were carried out in simulated intestinal fluid (SIF) and simulated gastric fluid (SGF) to evaluate gastric stability of the peptide compounds disclosed herein.
For clarification the term “Pepsin-SGF” refers to a solution of simulated gastric fluid containing pepsin whereas “SGF media” refers to a solution of simulated gastric fluid without pepsin. Pepsin-SGF was prepared by dissolving 320 mg Pepsin (Merck Millipore) in 100 mL SGF media concentrate (ProSense).
(§2) Peptides were first dissolved at 1 mM stock concentration in 0.01 HCl (+/−10% of DMSO) and were than diluted further with water to a stock concentration of 20 μM. Final peptide concentration in the incubation was 1 μM.
(§3) To 76 μL of the Pepsin-SGF buffer, 4 μL of the 20 μM peptide stock solution was added and incubated at 37° C. At each timepoint (0, 60, 120 and 240 minutes) the reaction was quenched with addition of 80 μL Ethanol (0.1% HCOOH). The samples were centrifuged for 20 minutes and an aliquot of the supernatant 100 μL were transferred to a LoBind-MTP plate and analyzed by LCMS/MS. The peak area response was calculated at each time point for each test compound. As internal reference, the peak area response of the same test compound at TO was calculated. The percent remaining at each timepoint was calculated based on the peak area response ratio of the test compound at TO. Time 0 was set to 100%, and all later timepoints were calculated relative to time 0.

Data set [1] has as its system IL-23 induced STAT3 signaling in HEK-Blue™ IL-23 cells. Nature of the data set: IL-23 induced STAT3 signaling in HEK-Blue IL-23 cells (SEAP reporter). It counts as cell-based. Conditions: human IL23 0.25 ng/ml, read-out: pSTAT3. The source says: HEK-Blue™ IL-23 cells (Invivogen) are designed for the detection of bioactive human (hIL-23) and murine IL-23 (mIL-23) by monitoring the activation of the STAT3 pathway. Binding of IL-23 to its receptor on the surface of HEK-Blue™ IL-23 cells triggers a signalling cascade leading to the activation of STAT3 and the subsequent production of secreted embryonic alkaline phosphatase (SEAP). This can be readily assessed using QUANTI-Blue™ Solution, a SEAP detection reagent.
HEK-Blue™ IL-23 cells were cultured as described by Invivogen.
On the first day of assay 10 μL of the HEK-Blue IL23 cell suspension (final concentration: 10,000 cells/well) and 10 μl of serially diluted peptides solutions were dispensed into a 384-well assay plate. After pre-incubation of the reaction mixtures at 37° C./5% CO2/95% humidity for 60 minutes, 10 μl of the human IL23 cytokine (final concentration: 0.25 ng/ml) was added to each well for the STAT3 signalling activation. The plate was incubated overnight at 37° C./5% CO2/95% humidity.
On the second day 20 μl per well of Quanti-Blue detection solution (prepared according to the manufacture instruction) was dispensed into a new 384-well plate and followed by the transfer of 5 μl supernatant of the overnight incubated cell/sample mixtures. After incubation of 45 min at room temperature signals were measured with PHERAstar (BMG) at OD 620-655 nm. Dose response data were fitted with XLfit.

Data set [2] can be described thus: Solubility testing of peptides at different pH. It counts as physicochemical. Conditions: target concentration 1 mg/ml, 2 hours agitation. The protocol: Prior to the solubility measurement of a synthesized peptide batch, its purity was determined through UPLC/MS (methods B-G).
For solubility testing the target concentration was 1 mg pure compound/ml. Therefore, solutions from solid samples were prepared in a buffer system at a concentration of 1 mg/mL compound. The solid samples were obtained by drying down aliquots of a dimethyl sulfoxide stock solution using a Thermo Speedvac vacuum centrifuge. The dry down time was 3 hours. • Solubility buffer system A) 50 mM HCl pH 1.2 • Solubility buffer system B) 50 mM phosphate buffer pH 6.5 • Solubility buffer system C) 50 mM phosphate buffer pH 7.4 • Solubility buffer system D) 50 mM phosphate buffer pH 9.0
UPLC-UV (Method A) was performed after 2 hours of gentle agitation from the filtered (0.45 μm filter plates) solutions, which was obtained by 10 mins of centrifugation forced filtration at 1500 RCF (relative centrifugal acceleration).
The solubility was determined by the comparison of the UV peak area of 2 μL-injections of a buffered sample diluted 1:5 with a standard curve of a dimethyl sulfoxide reference sample of the diluted in dimethyl sulfoxide with known concentration. The different extinction coefficients were taken into account for the calculation.

In the next data set the test system is Pancreatin. As to the kind of experiment: Protease stability in simulated intestinal fluid (Pancreatin-SIF, FaSSIF). It counts as in vitro ADME. Conditions: 1 μM peptide, 37° C.; for remaining at 1 h, 1 µM: 60 min, read-out: FaSSIF 60 (min), remaining percent of peptide; for remaining at 2 h, 1 µM: 120 min, read-out: FaSSIF 120 (min), remaining percent of peptide; for remaining at 4 h, 1 µM: 240 min, read-out: FaSSIF 240 (min), remaining percent of peptide. The procedure: as §1
Similarly, the term “Pancreatin-SIF” refers to a solution of simulated intestinal fluid containing pancreatin whereas “SIF-media” refers to a solution of simulated intestinal fluid without pancreatin.
Pancreatin-SIF was prepared by dissolving 1 mg Pancreatin (MP Biomedicals) in 10 mL SIF media concentrate (ProSense).
as §2
as §3, with “µM” for “μM”

Data set [3] in a line: Chemical stability assessment of peptides (relative purity loss). It counts as physicochemical. Conditions: 24 hours at 37° C. The procedure:
Purity of a peptide batch was determined through UPLC/MS (Methods B-G) prior to chemical stability measurement. The target concentration was 1 mg/ml pure compound. Solutions from solid samples were prepared in the following buffer systems with a concentration of 1 mg/ml compound based on the previously determined % purity: • Solubility buffer system A) 50 mM HCl pH 1.2+Acetonitrile (1:1) • Solubility buffer system B) 50 mM phosphate buffer pH 6.5+Acetonitrile (1:1) • Solubility buffer system C) 50 mM phosphate buffer pH 7.4+Acetonitrile (1:1)
Prepared solutions were stored for 24 hours at 2° C. and 37° C. After this time course, the samples were centrifuged for 15 min at 2500 RCF to create a 1:5 dilution of the supernatant. Then 2 μl of the dilution were analysed with UHPLC-UV.
The chemical stability was rated through the relative loss of purity calculated by the equation:
[(purity after 0 hours at 37° C.)−(purity after 24 hours at 37° C.)]/(purity after 0 hours at 37° C.)]*100%
The purity is calculated as [(peak area peptide)/(total peak area)]*100%.

Data set [4] has as its target T2, human interleukin-23 receptor (recombinant human IL-23R-Fc chimera) (Homo sapiens, UniProt Q5VWK5).
T2 construct: Fc (IgG Fc fusion)
Nature of the data set: Human ELISA IL23/IL23R (assay for specific human IL23R antagonists). It counts as binding. Conditions: Table 10; read-out: Human ELISA IL23/IL23R IC50. The protocol:
Antagonism of compounds for human interleukin-23 receptor antagonists, was determined by an ELISA assay.
A 384-well plate was coated with 50 μl/well of human IL23 at a final concentration of […] and incubated overnight at 4° C. The wells were washed 3 times with 80 μl wash buffer and blocked with 80 μl blocking buffer for 60 minutes at room temperature and washed again. 20 μl of serially diluted test peptides was added to each well and subsequently 20 μl of recombinant human IL-23R-Fc chimera at final concentration of 0.1 μg/ml. The plate was incubated for 60 minutes at room temperature. After the wells were washed, bound IL23R-Fc was detected with goat anti-hu-IgG1-HRP antibody. Signals were visualized with QuantaBlu Fluorogenic Peroxidase Substrate.

The mark [5] stands for this setting: 50 mM HCl buffer, 50 mM HCl pH 1.2, read-out: Solubility Buffer pH 1.2.
Where [6] appears, read: 50 mM phosphate buffer pH 6.5, read-out: Solubility Buffer pH 6.5.
The mark [7] stands for this setting: 50 mM phosphate buffer pH 7.4, read-out: Solubility Buffer pH 7.4.

Take `CC(=O)NCCCC[C@@H]1NC(=O)[C@H](Cc2c[nH]c3c(C)cccc23)NC(=O)[C@H]([C@@H](C)O)NC(=O)[C@H](CC(N)=O)NC(=O)[C@@H]2CSSC[C@H](NC1=O)C(=O)N[C@@H](Cc1ccc(OCCN(C)C)cc1)C(=O)N[C@@H](Cc1ccc3ccccc3c1)C(=O)N[C@@](C)(CC(C)C)C(=O)N[C@H](C(=O)N[C@@H](CC(N)=O)C(=O)N[C@@H](Cc1cccnc1)C(=O)N(C)CC(N)=O)CCC(=O)NCCCCC(=O)N2` [compound 65] ([Ava]CNT[Trp(7-Me)]K(Ac)CY(Me2NCH2CH2)[2Nal][αMeL]EN[3Pal][Sar]-NH2; disulfide 2-7; lactam N-11): the share remaining at 1 h, 1 µM in the data set with Pepsin was 86%; with Pancreatin it was 96%. Also, the IC50 in data set [1] amounted to 0.23 nM. The solubility at 2 h in data set [2] (setting [5]) was no less than 980 µg/mL; in data set [2] (setting [6]) it was no less than 910 µg/mL; in data set [2] (setting [7]) it was no less than 960 µg/mL. Further, the share remaining at 2 h, 1 µM in the data set with Pancreatin was 96%. In addition, the fraction remaining at 4 h, 1 µM with Pancreatin was 92%.

`CC(=O)NCCCC[C@@H]1NC(=O)[C@H](Cc2c[nH]c3c(C)cccc23)NC(=O)[C@@H](N(C)C)CCCCNC(=O)[C@@H]2CSSC[C@H](NC1=O)C(=O)N[C@@H](Cc1ccc(OCCN(C)C)cc1)C(=O)N[C@@H](Cc1ccc3ccccc3c1)C(=O)N[C@@](C)(CCCCN(C)C)C(=O)N[C@H](C(=O)N[C@@H](CC(N)=O)C(=O)N[C@@H](Cc1cccnc1)C(=O)N(C)CC(N)=O)CCC(=O)N(C)CCCCC(=O)N2` [compound 61] ([NMe5Ava]C[X2][Trp(7-Me)]K(Ac)CY(Me2NCH2CH2)[2Nal][αMeLys(Me2)]EN[3Pal][Sar]-NH2; disulfide 2-6; lactam N-10): the amount remaining at 1 h, 1 µM with Pepsin was 96%. In data set [1], the IC50 was determined as 4.4 nM. Also, in the data set with Pancreatin, the share remaining at 1 h, 1 µM was 90%; the amount remaining at 2 h, 1 µM was 74%; the amount remaining at 4 h, 1 µM is 62%.

Turning to `CC(=O)NCCCC[C@@H]1NC(=O)[C@H](Cc2c[nH]c3c(C)cccc23)NC(=O)[C@@H](NC(C)=O)CCCCNC(=O)[C@@H]2CSSC[C@H](NC1=O)C(=O)N[C@@H](Cc1ccc(OCCN(C)C)cc1)C(=O)N[C@@H](Cc1ccc3ccccc3c1)C(=O)NC1(CCOCC1)C(=O)N[C@H](C(=O)N[C@@H](CC(N)=O)C(=O)N[C@@H](Cc1cccnc1)C(=O)N(C)CC(N)=O)CCCCN(C)CCCCN2C` [compound 127], the figures for the amount remaining at 1 h, 1 µM with Pepsin and in the data set with Pancreatin were 100% and 99%, respectively. Further, the “Chemical stability (relative purity loss) Buffer pH 1.2” value in data set [3] (50 mM HCl pH 1.2 + acetonitrile (1:1)) is on record as 6.0%. In addition, in data set [3] (50 mM phosphate buffer pH 6.5 + acetonitrile (1:1)), the “Chemical stability (relative purity loss) Buffer pH 6.5” value is listed as 9.0%. For the same molecule, the “Chemical stability (relative purity loss) Buffer pH 7.4” value in data set [3] (50 mM phosphate buffer pH 7.4 + acetonitrile (1:1)) was determined as 11.0%. Moreover, in data set [4], the IC50 came out at 0.53 nM. For the same molecule, the solubility at 2 h in data set [2] (setting [5]) is no less than 1520 µg/mL; in data set [2] (setting [6]), no less than 1130 µg/mL; in data set [2] (setting [7]), no less than 1120 µg/mL; in data set [2] (50 mM phosphate buffer pH 9.0, read-out: Solubility Buffer pH 9.0), 620 µg/mL (≈ 333 µM). In addition, the fraction remaining at 2 h, 1 µM in the data set with Pancreatin is 101%. Besides, the amount remaining at 4 h, 1 µM in the data set on Pancreatin was 97%.

Take `CC(=O)N[C@H]1CCCCNC(=O)[C@@H]2CSSC[C@H](NC(=O)[C@H](CCC(N)=O)NC(=O)[C@H](Cc3c[nH]c4ccccc34)NC1=O)C(=O)N[C@@H](Cc1ccc(OCCN(C)C)cc1)C(=O)N[C@@H](Cc1ccc3ccccc3c1)C(=O)N[C@@](C)(CC(C)C)C(=O)N[C@H](C(=O)N[C@@H](CC(N)=O)C(=O)N[C@@H](CC(N)=O)C(N)=O)CCC(=O)NCCCCC(=O)N2` [compound 28] (Ac-KWQCY(Me2NCH2CH2)[2Nal][αMeL]ENN-NH2; linker 1-4-8 via X1): in the data set with Pepsin, the fraction remaining at 1 h, 1 µM was 83%. Further, the IC50 in data set [1] came out at 4.11 nM. In addition, in the data set on Pancreatin, the fraction remaining at 1 h, 1 µM is 80%; the amount remaining at 2 h, 1 µM was 68%; the share remaining at 4 h, 1 µM was 65%.
